The record followed here is US20140243302A1, “BRIDGED BICYCLIC COMPOUNDS FOR THE TREATMENT OF BACTERIAL INFECTIONS” (priority 2011, published 2014).

≈ marks a conversion by molar mass, not a printed value.

The assay concerns Staphylococcus aureus Smith. Kind of assay: MIC assay, modified agar dilution (CLSI), S. aureus Smith. Type of assay: cell-based. Particulars: agar dilution, 35° C., 16-20 hr, lowest concentration that completely inhibited growth; for MIC: Staphylococcus aureus, read-out: S_aureus_Smith_WT_MIC. The protocol: The potency of antibacterial agents was measured using the Minimal Inhibitory Concentration (MIC) assay. The assay measures the ability of test agents to inhibit the growth of bacteria on agar-containing medium.
The bacterial test strains used were exemplified by Staphylococcus aureus Smith, Enterococcus faecium A2373, Streptococcus pneumoniae IID554, and Escherichia coli ATCC 25922. All strains were maintained as frozen stocks held at −80° C. in skim milk. Other bacterial test strains are well known to those skilled in the art and can be used for testing.
Mueller Hinton Agar (MHA BBL; Becton Dickinson and Company, Sparks, Md.) was used as the medium. MHA was supplemented with 5% defibrinated horse blood (DHB; Nippon Biotest Laboratories inc.) to support the growth of S. pneumoniae and E. faecium.
MIC values were determined using a modified agar dilution procedure described by the Clinical and Laboratory Standards Institute (CLSI; Methods for Dilution Antimicrobial Susceptibility Tests for Bacteria That Grow Aerobically; Approved Standard—Eighth Edition. CLSI document M07-A8 [ISBN 1-56238-689-1]. Clinical and Laboratory Standards Institute, 940 West Valley Road, Suite 1400, Wayne, Pa. 19087-1898 USA, 2009).
Stock solutions (6.4 mgmL) of test compounds were prepared in 100% ultrapure dimethyl sulfoxide (DMSO; source) on the day of the assay. Subsequent serial dilutions were performed to generate solutions with concentrations ranging from 6.4 to 0.0002 mgmL in 100% DMSO.
Agar medium containing test compound was prepared by adding the dilutions of antimicrobial solution to molten MHA at a temperature of 45-50° C. The agar and antimicrobial solution were mixed thoroughly, poured into petri dishes, and allowed to solidify at room temperature. The final concentration of test compounds in the MHA medium ranged from 128 to 0.001 μg/mL with two-fold dilutions. MHA plates lacking antibacterial compound were used for growth controls.
Prior to susceptibility testing, the bacterial isolates were removed from frozen storage, thawed at room temperature, sub-cultured to MHA medium and incubated overnight at 35° C. S. pneumoniae and E. faecium were subcultured on MHA supplemented with 5% DHB at 35° C. with […]. Colonies from each plate were suspended in normal saline. This suspension was adjusted to the turbidity of a 0.5 McFarland standard, 1-2×10^8 colony forming units (CFU) per mL, and diluted 100-fold to 1-2×10^6 CFUmL.
Suspensions of bacterial cultures were applied to the surface of MHA plates containing test compound as well as to a growth control plate lacking test compound using an inoculum-replicating device with 4 mm pins. The replicating device applied 5 uL of the bacterial suspension such that each spot contained approx. 1×10^4 CFU. Plates were dried for about 40 min and incubated at 35° C. for 16-20 hr prior to scoring.

For the compound `COc1ccc2ncc(F)c(CCC34CCC(NCc5ccc6ncc(=O)[nH]c6n5)(CC3)CO4)c2n1` [Example 178, 6-[({1-[2-(3-Fluoro-6-methoxy-1,5-naphthyridin-4-yl)ethyl]-2-oxabicyclo[2.2.2]oct-4-yl}amino)methyl]pyrido[2,3-b]pyrazin-3(4H)-one], the MIC was 0.063 µg/mL (≈ 0.128 µM).

On to `COC(=O)C1CC1COc1ccc2ncc(F)c(CCC34CCC(NCc5ccc6c(n5)NC(=O)CO6)(CC3)CO4)c2n1` (single isomer, unassigned; enantiomer a) [Example 227, Methyl 247-Fluoro-8-(2-(4-((3-oxo-3,4-dihydro-2H-pyrido[3,2-b][1,4]oxazin-6-yl)methylamino)-2-oxabicyclo[2.2.2]octan-1-yl)ethyl)-1,5-naphthyridin-2-yloxy)methyl)cyclopropanecarboxylate (Enantiomer A)], for which the MIC was 0.063 µg/mL (≈ 0.106 µM). As for `Nc1ccc2ncc(F)c(CCC34CCC(NCc5ccc6c(n5)NC(=O)CO6)(CC3)CO4)c2n1` [Example 30, 6-((1-(2-(6-Amino-3-fluoro-1,5-naphthyridin-4-yl)ethyl)-2-oxabicyclo[2.2.2]octan-4-ylamino)methyl)-2H-pyrido[3,2-b][1,4]oxazin-3(4H)-one], the MIC is 2 µg/mL (≈ 4.18 µM).

As to `COCCOc1ccc2ncc(F)c(CCC34CCC(NCc5ccc6c(n5)NC(=O)CO6)(CC3)CO4)c2n1` [Example 33, 6-((1-(2-(3-Fluoro-6-(2-methoxyethoxy)-1,5-naphthyridin-4-yl)ethyl)-2-oxabicyclo[2.2.2]octan-4-ylamino)methyl)-2H-pyrido[3,2-b][1,4]oxazin-3(4H)-one], the MIC is 0.063 µg/mL (≈ 0.117 µM).

For `COc1ccc2ncc(F)c(CCC34CCC(NCc5cnc6c(c5)OCCN6C)(CC3)CO4)c2n1` [Example 89, 1-(2-(3-Fluoro-6-methoxy-1,5-naphthyridin-4-yl)ethyl)-N-((4-methyl-3,4-dihydro-2H-pyrido[3,2-b][1,4]oxazin-7-yl)methyl)-2-oxabicyclo[2.2.2]octan-4-amine], the MIC was found to be 0.125 µg/mL (≈ 0.253 µM). For the compound `COc1ccc2ncc(F)c(CCC34CCC(NCc5ccc6c(c5)n(C)c(=O)n6C)(CC3)CO4)c2n1` [Example 91, 5-((1-(2-(3-Fluoro-6-methoxy-1,5-naphthyridin-4-yl)ethyl)-2-oxabicyclo[2.2.2]octan-4-ylamino)methyl)-1,3-dimethyl-1H-benzo[d]imidazol-2(3H)-one], the MIC was found to be 16 µg/mL (≈ 31.6 µM). On the same count and under the same terms, as for `COc1ccc2ncc(F)c(C[C@@H](O)C34CCC(NCc5ncc6c(n5)OCCO6)(CC3)CO4)c2n1` [Example 145, (R)-1-(4-((6,7-Dihydro-[1,4]dioxino[2,3-d]pyrimidin-2-yl)methylamino)-2-oxabicyclo[2.2.2]octan-1-yl)-2-(3-fluoro-6-methoxy-1,5-naphthyridin-4-yl)ethanol], the figure is 0.25 µg/mL (≈ 0.502 µM); as for `COc1ccc2ncc(F)c(CCC34CCC(NCc5cc(-c6cccs6)on5)(CC3)CO4)c2n1` [Example 73, 1-(2-(3-Fluoro-6-methoxy-1,5-naphthyridin-4-yl)ethyl)-N-((5-(thiophen-2-yl)isoxazol-3-yl)methyl)-2-oxabicyclo[2.2.2]octan-4-amine], 0.016 µg/mL (≈ 0.0323 µM); as for `COc1ccc2ncc(F)c(CC(O)C34CCC(NCc5cc6c(cn5)OCCO6)(CC3)CO4)c2n1` (single isomer, unassigned) [Example 132, 1-(4-((2,3-Dihydro-[1,4]dioxino[2,3-c]pyridin-7-yl)methylamino)-2-oxabicyclo[2.2.2]octan-1-yl)-2-(3-fluoro-6-methoxy-1,5-naphthyridin-4-yl)ethanol], 0.031 µg/mL (≈ 0.0624 µM).

Regarding `COc1ccc2ncc(Cl)c(CC(O)C34CCC(NCc5ccc6c(n5)NC(=O)CO6)(CC3)CC4)c2n1.Cl` (single isomer, unassigned) [Example 14a, 6-((4-(2-(3-Chloro-6-methoxy-1,5-naphthyridin-4-yl)-1-hydroxyethyl)bicyclo[2.2.2]octan-1-ylamino)methyl)-2H-pyrido[3,2-b][1,4]oxazin-3(4H)-one Hydrochloride], the MIC amounted to 0.031 µg/mL.

As to `COc1ccc2ncc(F)c(CCC34CCC(NCc5cc6[nH]c(=O)cnc6cn5)(CC3)CO4)c2n1` [Example 179, 7-[({1-[2-(3-Fluoro-6-methoxy-1,5-naphthyridin-4-yl)ethyl]-2-oxabicyclo[2.2.2]oct-4-yl}amino)methyl]pyrido[3,4-b]pyrazin-2(1H)-one], the MIC was 0.5 µg/mL (≈ 1.02 µM).

The compound `COc1ccc2ncc(F)c(CCC34CCC(NCc5cc6c(cn5)OCC(=O)N6)(CC3)CO4)c2n1` [Example 148, 7-((1-(2-(3-Fluoro-6-methoxy-1,5-naphthyridin-4-yl)ethyl)-2-oxabicyclo[2.2.2]octan-4-ylamino)methyl)-1H-pyrido[3,4-b][1,4]oxazin-2(3H)-one] had a S_aureus_Smith_WT_MIC of 0.0310 µg/mL. For the compound `CCOC(=O)c1cnc2ccc(OC)nc2c1CCC12CCC(NCc3ccc4c(n3)NC(=O)CO4)(CC1)CC2` [Example 2, Ethyl 6-Methoxy-4-(2-(4-((3-oxo-3,4-dihydro-2H-pyrido[3,2-b][1,4]oxazin-6-yl)methylamino)bicyclo[2.2.2]octan-1-yl)ethyl)-1,5-naphthyridine-3-carboxylate], the MIC was found to be 0.125 µg/mL (≈ 0.229 µM). As for `O=C1COc2ccc(CNC34CCC(CCn5c(=O)c6cccn6c6c(F)cccc65)(CC3)OC4)nc2N1` [Example 112, 6-((1-(2-(9-Fluoro-4-oxopyrrolo[1,2-a]quinoxalin-5(4H)-yl)ethyl)-2-oxabicyclo[2.2.2]octan-4-ylamino)methyl)-2H-pyrido[3,2-b][1,4]oxazin-3(4H)-one], the MIC turned out to be 1 µg/mL (≈ 1.93 µM). Take `O=C1COc2ccc(CNC34CCC(CCn5c(=O)ccc6ncc(F)cc65)(CC3)OC4)nc2N1` [Example 119, 6-((1-(2-(7-Fluoro-2-oxo-1,5-naphthyridin-1(2H)-yl)ethyl)-2-oxabicyclo[2.2.2]octan-4-ylamino)methyl)-2H-pyrido[3,2-b][1,4]oxazin-3(4H)-one]: the MIC was 0.125 µg/mL (≈ 0.261 µM). As for `COc1ccc2ncc(F)c(CC(O)(C(F)(F)F)C34CCC(NCc5ccc6c(n5)NC(=O)CO6)(CC3)CO4)c2n1` (centres unmarked) [Example 138, 6-[({1-[1,1,1-Trifluoro-3-(3-fluoro-6-methoxy-1,5-naphthyridin-4-yl)-2-hydroxypropan-2-yl]-2-oxabicyclo[2.2.2]oct-4-yl}amino)methyl]-2H-pyrido[3,2-b][1,4]oxazin-3(4H)-one], the MIC is 0.5 µg/mL (≈ 0.866 µM). Take `C=Cc1c(CNC23CCC(CCc4c(F)cnc5ccc(OC)nc45)(CC2)OC3)nc2c(c1C)OCC(=O)N2.Cl` [Example 199, 1-(2-(3-Fluoro-6-methoxy-1,5-naphthyridin-4-yl)ethyl)-N-((8-methyl-3-oxo-7-vinyl-3,4-dihydro-2H-pyrido[3,2-b][1,4]oxazin-6-yl)methyl)-2-oxabicyclo[2.2.2]octan-4-aminium chloride]: the MIC was determined as 0.25 µg/mL. Consider `COc1ccc2ncc(F)c(C3OC(=O)OC3C34CCC(NCc5ccc6c(n5)NC(=O)CO6)(CC3)CO4)c2n1.Cl` (single isomer, unassigned) [Example 27b, 6-((1-(5-(3-fluoro-6-methoxy-1,5-naphthyridin-4-yl)-2-oxo-1,3-dioxolan-4-yl)-2-oxabicyclo[2.2.2]octan-4-ylamino)methyl)-2H-pyrido[3,2-b][1,4]oxazin-3(4H)-one hydrochloride], for which the S_aureus_Smith_WT_MIC (Hydrochloride) turned out to be 2.00 µg/mL. Turning to `COc1ccc2ncc(F)c(CCC34CCC(NC(=O)c5ccc(C)c(F)c5)(CC3)CO4)c2n1` [Example 68, 3-Fluoro-N-(1-(2-(3-fluoro-6-methoxy-1,5-naphthyridin-4-yl)ethyl)-2-oxabicyclo[2.2.2]octan-4-yl)-4-methylbenzamide], the MIC amounted to 0.016 µg/mL (≈ 0.0342 µM). Regarding `N#Cc1cnc2ccc(=O)n(CCC34CCC(NCc5ccc6c(n5)NC(=O)CO6)(CC3)CO4)c2c1` [Example 128, 6-Oxo-5-(2-(4-((3-oxo-3,4-dihydro-2H-pyrido[3,2-b][1,4]oxazin-6-yl)methylamino)-2-oxabicyclo[2.2.2]octan-1-yl)ethyl)-5,6-dihydro-1,5-naphthyridine-3-carbonitrile], the MIC worked out at 0.063 µg/mL (≈ 0.129 µM).
